# Test results as given in patent US10273218B2, “BCL-3 inhibitors” (University College Cardiff Consultants Limited, priority 2014, dated 2019).
row,SMILES,melting point
1,"O=C(NCCN1CCOCC1)c1ccccc1NC(=O)c1ccccc1C(F)(F)F [Compound 9, N-(2-morpholinoethyl)-2-(2-(trifluoromethyl)benzamido) benzamide]",90 to 92 °C
2,"O=C(Nc1ccccc1C(=O)NCCN1CCOCC1)c1ccc(C(F)(F)F)cc1 [Compound 11, N-(2-morpholinoethyl)-2-(4-(trifluoromethyl)benzamido) benzamide]",99 to 101 °C
3,"O=C(Nc1cccc(F)c1C(=O)NCCN1CCOCC1)c1ccccc1F [Compound 13, 2-fluoro-6-(2-fluorobenzamido)-N-(2-morpholinoethyl) benzamide]",88 to 90 °C
4,"O=C(Nc1cc(F)ccc1C(=O)NCCN1CCOCC1)c1ccccc1F [Compound 14, 4-fluoro-2-(2-fluorobenzamido)-N-(2-morpholinoethyl) benzamide]",104 to 106 °C
5,"COc1cccc(C(=O)NCCN2CCOCC2)c1NC(=O)c1cccc(F)c1 [Compound 17, 2-(3-fluorobenzamido)-3-methoxy-N-(2-morpholinoethyl) benzamide]",128 to 131 °C
6,"COc1cccc(C(=O)NCCN2CCOCC2)c1NC(=O)c1ccc(F)cc1 [Compound 18, 2-(4-fluorobenzamido)-3-methoxy-N-(2-morpholinoethyl) benzamide]",148 to 151 °C
7,"COc1cc(NC(=O)c2ccccc2F)c(C(=O)NCCN2CCOCC2)cc1OC [Compound 19, 2-(2-fluorobenzamido)-4,5-dimethoxy-N-(2-morpholinoethyl) benzamide]",136 °C
8,"COc1cc(NC(=O)c2ccccc2F)c(C(=O)NCCN2CCOCC2)c(OC)c1OC [Compound 20, 6-(2-fluorobenzamido)-2,3,4-trimethoxy-N-(2-morpholinoethyl) benzamide]",141 °C
9,"COc1ccccc1C(=O)Nc1c(OC)cccc1C(=O)NCCN1CCOCC1 [Compound 25, 3-methoxy-2-(2-methoxybenzamido)-N-(2-morpholinoethyl) benzamide]",105 to 107 °C
10,"COc1cccc(C(=O)Nc2c(OC)cccc2C(=O)NCCN2CCOCC2)c1 [Compound 26, 3-methoxy-2-(3-methoxybenzamido)-N-(2-morpholinoethyl) benzamide]",110 to 113 °C
11,"COc1ccc(C(=O)Nc2cc(OC)c(OC)c(OC)c2C(=O)NCCN2CCOCC2)cc1 [Compound 27, 2,3,4-trimethoxy-6-(4-methoxybenzamido)-N-(2-morpholinoethyl)benzamide]",143 °C
12,"COc1ccc(C(=O)Nc2c(OC)cccc2C(=O)NCCN2CCOCC2)c(OC)c1 [Compound 29, 2-(2,4-dimethoxybenzamido)-3-methoxy-N-(2-morpholinoethyl) benzamide]",103 to 106 °C
13,"O=C(Nc1ccccc1C(=O)NCCN1CCOCC1)c1cccnc1 [Compound 32, N-(2-((2-morpholinoethyl)carbamoyl)phenyl)nicotinamide]",85 °C
14,"COc1cc(NC(=O)c2cccnc2)c(C(=O)NCCN2CCOCC2)c(OC)c1OC [Compound 33, N-(3,4,5-trimethoxy-2-((2-morpholinoethyl)carbamoyl)phenyl) nicotinamide]",155 °C
15,"O=C(Nc1ccccc1C(=O)NCCCN1CCOCC1)c1ccccc1F [Compound 34, 2-fluoro-N-(2-((3-morpholinopropyl)carbamoyl)phenyl) benzamide]",76 to 79 °C
16,"COc1ccc(C(=O)Nc2ccccc2C(=O)NCCCN2CCOCC2)cc1 [Compound 35, 2-(4-methoxybenzamido)-N-(3-morpholinopropyl)benzamide]",112 to 114 °C
17,"O=C(NCCCN1CCOCC1)c1ccccc1NC(=O)c1cccc2ccccc12 [Compound 36, N-(2-((3-morpholinopropyl)carbamoyl)phenyl)-1-naphthamide]",110 to 112 °C
18,"O=C(Nc1ccccc1C(=O)NCCCN1CCOCC1)c1ccc2ccccc2c1 [Compound 37, N-(2-((3-morpholinopropyl)carbamoyl)phenyl)-2-naphthamide]",103 to 105 °C
19,"O=C(Nc1ccccc1C(=O)NCCN1CCNCC1)c1ccc([N+](=O)[O-])cc1 [Compound 38, 2-(4-nitrobenzamido)-N-(2-(piperazin-1-yl)ethyl)benzamide]",98 °C
20,"O=C(Nc1ccccc1C(=O)NCCN1CCNCC1)c1ccc(Cl)cc1 [Compound 39, 2-(4-chlorobenzamido)-N-(2-(piperazin-1-yl)ethyl)benzamide]",60 °C
21,"COc1ccc(C(=O)Nc2ccccc2C(=O)NCCN2CCNCC2)cc1 [Compound 42, 2-(4-methoxybenzamido)-N-(2-(piperazin-1-yl)ethyl)benzamide]",91 °C
22,"O=C(Nc1ccccc1C(=O)NCCN1CCNCC1)c1cc(F)cc(F)c1 [Compound 43, 3,5-difluoro-N-(2-((2-(piperazin-1-yl)ethyl)carbamoyl)phenyl) benzamide]",68 °C
23,"O=C(NCCN1CCNCC1)c1ccccc1NC(=O)c1c(F)cccc1F [Compound 44, 2,6-difluoro-N-(2-((2-(piperazin-1-yl)ethyl)carbamoyl)phenyl) benzamide]",79 °C
24,"O=C(Nc1ccccc1C(=O)NCCN1CCNCC1)c1ccc(F)cc1F [Compound 45, 2,4-difluoro-N-(2-((2-(piperazin-1-yl)ethyl)carbamoyl)phenyl) benzamide]",84 °C

# The next lines start with the values.
row,melting point,SMILES
1,80 °C,"CN1CCN(CCNC(=O)c2ccccc2NC(=O)c2ccccc2)CC1 [Compound 47, 2-benzamido-N-(2-(4-methylpiperazin-1-yl)ethyl)benzamide]"
2,122 °C,"CN1CCN(CCNC(=O)c2ccccc2NC(=O)c2ccc([N+](=O)[O-])cc2)CC1 [Compound 48, N-(2-(4-methylpiperazin-1-yl)ethyl)-2-(4-nitrobenzamido) benzamide]"
3,81 °C,"CN1CCN(CCNC(=O)c2ccccc2NC(=O)c2cccc(F)c2)CC1 [Compound 50, 2-(3-fluorobenzamido)-N-(2-(4-methylpiperazin-1-yl)ethyl) benzamide]"
4,104 °C,"CN1CCN(CCNC(=O)c2ccccc2NC(=O)c2cccc(Cl)c2)CC1 [Compound 51, 2-(3-chlorobenzamido)-N-(2-(4-methylpiperazin-1-yl)ethyl) benzamide]"
5,99 °C,"CN1CCN(CCNC(=O)c2ccccc2NC(=O)c2ccc(Cl)cc2)CC1 [Compound 52, 2-(4-chlorobenzamido)-N-(2-(4-methylpiperazin-1-yl)ethyl) benzamide]"
6,111 °C,"COc1ccccc1C(=O)Nc1ccccc1C(=O)NCCN1CCN(C)CC1 [Compound 53, 2-methoxy-N-(2-((2-(4-methylpiperazin-1-yl)ethyl)carbamoyl)phenyl)benzamide]"
7,114 °C,"COc1ccc(C(=O)Nc2ccccc2C(=O)NCCN2CCN(C)CC2)cc1 [Compound 54, 2-(4-methoxybenzamido)-N-(2-(4-methylpiperazin-1-yl)ethyl) benzamide]"
8,111 °C,"CN1CCN(CCNC(=O)c2ccccc2NC(=O)c2cc(F)cc(F)c2)CC1 [Compound 56, 3,5-difluoro-N-(2-((2-(4-methylpiperazin-1-yl)ethyl)carbamoyl)phenyl)benzamide]"
9,121 to 122 °C,"CN1CCN(CCNC(=O)c2ccccc2NC(=O)c2ccc(F)cc2F)CC1 [Compound 57, 2,4-difluoro-N-(2-((2-(4-methylpiperazin-1-yl)ethyl)carbamoyl)phenyl)benzamide]"
10,110 to 112 °C,"COc1ccc(C(=O)Nc2ccccc2C(=O)NCCN2CCN(C)CC2)c(F)c1 [Compound 58, 2-fluoro-4-methoxy-N-(2-((2-(4-methylpiperazin-1-yl)ethyl)carbamoyl)phenyl)benzamide]"
11,60 °C,"COc1cc(NC(=O)c2ccccc2F)c(C(=O)NCCN2CCN(C)CC2)cc1OC [Compound 59, 2-(2-fluorobenzamido)-4,5-dimethoxy-N-(2-(4-methylpiperazin-1-yl)ethyl)benzamide]"
12,130 °C,"COc1cc(NC(=O)c2ccccc2F)c(C(=O)NCCN2CCN(C)CC2)c(OC)c1OC [Compound 60, 6-(2-fluorobenzamido)-2,3,4-trimethoxy-N-(2-(4-methylpiperazin-1-yl)ethyl)benzamide]"
13,70 °C,"COc1ccc(C(=O)Nc2cc(OC)c(OC)cc2C(=O)NCCN2CCN(C)CC2)cc1 [Compound 61, 4,5-dimethoxy-2-(4-methoxybenzamido)-N-(2-(4-methylpiperazin-1-yl)ethyl)benzamide]"
14,115 °C,"COc1ccc(C(=O)Nc2cc(OC)c(OC)c(OC)c2C(=O)NCCN2CCN(C)CC2)cc1 [Compound 62, 2,3,4-trimethoxy-6-(4-methoxybenzamido)-N-(2-(4-methylpiperazin-1-yl)ethyl)benzamide]"
15,99 °C,"CN1CCN(CCNC(=O)c2ccccc2NC(=O)c2cccnc2)CC1 [Compound 63, N-(2-((2-(4-methylpiperazin-1-yl)ethyl)carbamoyl)phenyl) nicotinamide]"
16,126 °C,"COc1cc(NC(=O)c2cccnc2)c(C(=O)NCCN2CCN(C)CC2)cc1OC [Compound 64, N-(4,5-dimethoxy-2-((2-(4-methylpiperazin-1-yl)ethyl)carbamoyl)phenyl)nicotinamide]"
17,143 °C,"COc1cc(NC(=O)c2cccnc2)c(C(=O)NCCN2CCN(C)CC2)c(OC)c1OC [Compound 65, N-(3,4,5-trimethoxy-2-((2-(4-methylpiperazin-1-yl)ethyl)carbamoyl)phenyl)nicotinamide]"
18,98 to 100 °C,"CN1CCN(CCCNC(=O)c2ccccc2NC(=O)c2cccc3ccccc23)CC1 [Compound 68, N-(2-((3-(4-methylpiperazin-1-yl)propyl)carbamoyl)phenyl)-1-naphthamide]"
19,71 to 72 °C,"CN1CCN(CCCNC(=O)c2ccccc2NC(=O)c2ccc3ccccc3c2)CC1 [Compound 69, N-(2-((3-(4-methylpiperazin-1-yl)propyl)carbamoyl)phenyl)-2-naphthamide]"
20,104 to 106 °C,"O=C(Nc1ccccc1C(=O)NCCc1ccccc1)c1ccc(Cl)cc1 [Compound 76, 2-(4-chlorobenzamido)-N-phenethylbenzamide]"
21,96 to 98 °C,"O=C(Nc1cccc(F)c1C(=O)NCCc1ccccc1)c1ccccc1F [Compound 81, 2-fluoro-6-(2-fluorobenzamido)-N-phenethylbenzamide]"
